≈ marks a conversion by molar mass, not a printed value.
What was measured:
NCI-H1975 [1] = assay: Antitumor activity against human NCI-H1975 cells harboring EGFR L858R/[…] double mutant xenografted in SCID mouse assessed as tumor growth inhibition at […], po qd for 7 days relative to control; assay type: functional
A-431 [2] = assay: Antitumor activity against human A431 cells xenografted in SCID mouse assessed as tumor growth inhibition at […], po qd for 7 days relative to control; assay type: functional
[3] = Lipophilicity, log D of the compound at pH 7.4; assay type: physicochemical; details: buffer
[4] = Thermodynamic solubility of the compound at pH 7.4; assay type: physicochemical; details: buffer, read-out: Therm_solubility
[5] = molecular target: Insulin-like growth factor 1 receptor (Homo sapiens, UniProt P08069); assay: Inhibition of IGF1R (unknown origin)
NCI-H1975 [6] = assay: Cytotoxicity against human NCI-H1975 cells harboring EGFR L858R/[…] double mutant assessed as growth inhibition after 72 hrs by SYTOX green nucleic acid staining-based fluorescence assay; assay type: functional
[7] = Cytotoxicity against human PC9 cells harboring EGFR exon 19 deletion activating mutant assessed as growth inhibition after 72 hrs by SYTOX green nucleic acid staining-based fluorescence assay; assay type: functional, PC-9
[8] = Cytotoxicity against human Calu3 cells assessed as growth inhibition after 72 hrs by SYTOX green nucleic acid staining-based fluorescence assay; assay type: functional, Calu-3
Plasma [9] = assay: (§1) Unbound fraction in human plasma; assay type: ADME, cell-free
[10] = Unbound fraction in nude mouse plasma; assay type: ADME, cell-free
[11] = Intrinsic clearance in rat hepatocytes measured per 10^6 cells; assay type: ADME, cell-based, Hepatocyte; details: read-out: CLH
[12] = Intrinsic clearance in human hepatocytes measured per 10^6 cells; assay type: ADME, cell-based, Hepatocyte; details: read-out: CLH
[13] = Half life of the compound by GSH reduction assay; assay type: physicochemical; details: glutathione (GSH)
[14] = Cmax in mouse at 10 mg/kg, po; assay type: ADME, organism-based; design: dose 10 mg/kg, route oral; details: in vivo
NCI-H1975 [15] = assay: Antitumor activity against human NCI-H1975 cells harboring EGFR L858R/[…] double mutant xenografted in SCID mouse assessed as tumor growth inhibition at 10 mg/kg/day, po qd for 7 days relative to control; assay type: functional
[16] = Antitumor activity against human PC9 cells harboring EGFR exon 19 deletion activating mutant xenografted in SCID mouse assessed as tumor growth inhibition at 10 mg/kg/day, po qd for 7 days relative to control; assay type: functional, PC-9
A-431 [17] = assay: Antitumor activity against human A431 cells xenografted in SCID mouse assessed as tumor growth inhibition at 10 mg/kg/day, po qd for 7 days relative to control; assay type: functional
Rattus norvegicus [18] = assay: Clearance in iv dosed Han Wistar rat; assay type: ADME, organism-based; details: in vivo
[19] = Oral bioavailability in Han Wistar rat at 5 mg/kg; assay type: ADME, organism-based; details: in vivo
[20] = Fraction unbound in Han Wistar rat plasma; assay type: ADME, cell-free
NCI-H1975 [21] = assay: Antitumor activity against human NCI-H1975 cells harboring EGFR L858R/[…] double mutant xenografted in SCID mouse assessed as tumor growth inhibition at 5 mg/kg/day, po qd for 7 days relative to control; assay type: functional
A-431 [22] = assay: Antitumor activity against human A431 cells xenografted in SCID mouse assessed as tumor growth inhibition at 5 mg/kg/day, po qd for 7 days relative to control; assay type: functional
Insulin receptor = Insulin receptor (Homo sapiens, UniProt P06213); assay: Inhibition of INSR (unknown origin)
Rattus norvegicus [23] = assay: Toxicity in rat at 200 mg/kg, po as single dose measured over 24 hrs; assay type: organism-based; design: dose 200 mg/kg, route oral; details: in vivo
Rattus norvegicus [24] = assay: Toxicity in rat assessed as hyperglycemia at 200 mg/kg, po as single dose measured over 24 hrs; assay type: organism-based; design: dose 200 mg/kg, route oral; details: in vivo
Cavia porcellus = assay: Cardiotoxicity in anesthetized guinea pig assessed as QT prolongation at fCmax concentration; assay type: toxicity, organism-based; details: in vivo
Plasma [25] = assay: Drug metabolism in rat plasma assessed as loss of indole N-methyl group; assay type: ADME, cell-free
Plasma [26] = assay: Drug metabolism in mouse plasma assessed as loss of indole N-methyl group; assay type: ADME, cell-free
Plasma [27] = assay: Drug metabolism in rat plasma assessed as dealkylation of compound; assay type: ADME, cell-free
Plasma [28] = assay: Drug metabolism in mouse plasma assessed as dealkylation of compound; assay type: ADME, cell-free
Plasma [29] = assay: Drug metabolism in mouse plasma treated with N-[2-(2-Dimethylaminoethylmethylamino)-4-methoxy-5-[[4-(1-methylindol-3-yl)pyrimidin-2-yl]amino]phenyl]prop-2-enamide; assay type: ADME, cell-free
[30] = molecular target: Voltage-gated inwardly rectifying potassium channel KCNH2 (Homo sapiens, UniProt Q12809); assay: Inhibition of human ERG
[31] = as §1; assay type: ADME, cell-free
Plasma [32] = assay: Drug metabolism in rat plasma treated with N-[2-(2-Dimethylaminoethylmethylamino)-4-methoxy-5-[[4-(1-methylindol-3-yl)pyrimidin-2-yl]amino]phenyl]prop-2-enamide; assay type: ADME, cell-free
NCI-H1975 [33] = assay: Antitumor activity against human NCI-H1975 cells harboring EGFR L858R/[…] double mutant xenografted in SCID mouse assessed as tumor growth inhibition at 20 mg/kg/day, po qd for 7 days relative to control; assay type: functional; details: NCI-H1975, 168 h, read-out: TGI
A-431 [34] = assay: Antitumor activity against human A431 cells xenografted in SCID mouse assessed as tumor growth inhibition at 20 mg/kg/day, po qd for 7 days relative to control; assay type: functional; details: A-431, 168 h, read-out: TGI
[35] = Mus musculus, NCI-H1975, 168 h, read-out: TGI
[36] = Mus musculus, A-431, 168 h, read-out: TGI

Chain of Insulin-like growth factor 1 receptor (P08069 31-736 limits assumed): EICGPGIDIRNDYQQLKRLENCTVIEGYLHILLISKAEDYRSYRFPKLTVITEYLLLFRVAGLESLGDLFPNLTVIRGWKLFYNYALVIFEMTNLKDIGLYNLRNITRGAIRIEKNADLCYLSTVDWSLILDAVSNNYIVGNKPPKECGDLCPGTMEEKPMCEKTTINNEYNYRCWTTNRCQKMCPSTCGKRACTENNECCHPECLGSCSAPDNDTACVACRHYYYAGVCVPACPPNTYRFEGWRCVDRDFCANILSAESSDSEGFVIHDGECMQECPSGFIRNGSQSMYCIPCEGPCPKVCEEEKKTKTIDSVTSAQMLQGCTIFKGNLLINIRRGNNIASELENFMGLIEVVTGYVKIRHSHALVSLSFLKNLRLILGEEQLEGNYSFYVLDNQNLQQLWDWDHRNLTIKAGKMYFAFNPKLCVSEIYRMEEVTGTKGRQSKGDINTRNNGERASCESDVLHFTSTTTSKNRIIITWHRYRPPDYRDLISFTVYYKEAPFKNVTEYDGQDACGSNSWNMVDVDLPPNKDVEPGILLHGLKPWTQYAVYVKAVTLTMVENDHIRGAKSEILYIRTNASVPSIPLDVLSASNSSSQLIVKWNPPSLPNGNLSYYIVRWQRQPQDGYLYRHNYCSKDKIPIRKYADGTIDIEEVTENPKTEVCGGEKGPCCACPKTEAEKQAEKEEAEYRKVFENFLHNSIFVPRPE
Chain of Insulin-like growth factor 1 receptor (P08069 741-1367 limits assumed): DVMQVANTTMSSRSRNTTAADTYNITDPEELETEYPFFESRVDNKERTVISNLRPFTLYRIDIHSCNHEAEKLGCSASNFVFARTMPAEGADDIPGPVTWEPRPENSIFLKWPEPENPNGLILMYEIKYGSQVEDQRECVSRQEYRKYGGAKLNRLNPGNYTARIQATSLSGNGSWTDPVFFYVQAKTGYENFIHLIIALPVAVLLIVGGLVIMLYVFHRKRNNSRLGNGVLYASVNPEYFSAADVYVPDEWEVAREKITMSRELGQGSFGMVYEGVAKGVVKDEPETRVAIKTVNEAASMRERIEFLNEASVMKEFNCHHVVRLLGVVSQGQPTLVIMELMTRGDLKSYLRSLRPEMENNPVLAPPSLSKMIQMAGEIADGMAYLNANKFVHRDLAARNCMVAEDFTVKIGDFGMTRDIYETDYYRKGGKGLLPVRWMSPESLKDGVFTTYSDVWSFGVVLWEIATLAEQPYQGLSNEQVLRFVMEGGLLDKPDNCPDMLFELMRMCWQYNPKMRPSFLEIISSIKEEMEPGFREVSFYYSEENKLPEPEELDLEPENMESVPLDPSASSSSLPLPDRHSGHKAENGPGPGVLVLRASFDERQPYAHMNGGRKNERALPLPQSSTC
Chain of Insulin receptor (P06213 28-758 limits assumed): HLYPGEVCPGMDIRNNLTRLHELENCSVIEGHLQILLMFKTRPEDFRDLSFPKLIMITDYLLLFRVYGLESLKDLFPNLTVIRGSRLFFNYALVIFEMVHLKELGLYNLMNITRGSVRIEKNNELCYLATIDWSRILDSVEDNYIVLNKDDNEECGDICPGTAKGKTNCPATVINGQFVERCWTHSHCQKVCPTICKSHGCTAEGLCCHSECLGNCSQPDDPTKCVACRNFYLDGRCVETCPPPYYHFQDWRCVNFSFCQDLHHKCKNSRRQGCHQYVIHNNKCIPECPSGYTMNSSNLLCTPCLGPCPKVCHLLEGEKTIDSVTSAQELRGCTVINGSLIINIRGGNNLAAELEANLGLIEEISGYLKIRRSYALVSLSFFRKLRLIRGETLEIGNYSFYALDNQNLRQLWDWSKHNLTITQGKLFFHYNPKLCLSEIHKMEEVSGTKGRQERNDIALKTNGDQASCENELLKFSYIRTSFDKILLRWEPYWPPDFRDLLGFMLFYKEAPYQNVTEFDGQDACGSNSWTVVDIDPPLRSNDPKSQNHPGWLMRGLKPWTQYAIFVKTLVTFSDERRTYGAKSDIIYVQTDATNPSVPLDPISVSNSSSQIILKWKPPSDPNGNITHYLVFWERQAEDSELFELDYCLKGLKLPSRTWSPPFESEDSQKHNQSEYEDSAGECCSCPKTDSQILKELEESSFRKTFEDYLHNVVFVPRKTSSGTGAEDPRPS
Chain of Insulin receptor (P06213 763-1382 limits assumed): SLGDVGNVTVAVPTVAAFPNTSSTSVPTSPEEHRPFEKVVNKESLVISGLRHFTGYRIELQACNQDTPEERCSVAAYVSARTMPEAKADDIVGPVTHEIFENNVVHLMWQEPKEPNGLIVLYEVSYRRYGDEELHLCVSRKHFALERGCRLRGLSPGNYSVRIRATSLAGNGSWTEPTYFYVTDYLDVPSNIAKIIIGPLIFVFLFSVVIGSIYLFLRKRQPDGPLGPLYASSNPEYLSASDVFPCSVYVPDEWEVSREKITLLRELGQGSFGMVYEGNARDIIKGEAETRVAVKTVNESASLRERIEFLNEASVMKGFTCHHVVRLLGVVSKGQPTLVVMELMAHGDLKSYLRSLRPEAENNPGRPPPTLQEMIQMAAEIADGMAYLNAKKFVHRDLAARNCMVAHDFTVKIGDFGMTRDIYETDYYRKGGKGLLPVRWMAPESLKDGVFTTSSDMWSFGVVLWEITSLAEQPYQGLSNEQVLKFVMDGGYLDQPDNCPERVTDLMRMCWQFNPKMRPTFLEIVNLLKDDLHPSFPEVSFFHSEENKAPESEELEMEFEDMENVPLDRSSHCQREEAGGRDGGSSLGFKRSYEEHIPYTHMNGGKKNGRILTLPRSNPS
Chain of Voltage-gated inwardly rectifying potassium channel KCNH2 (Q12809 whole entry): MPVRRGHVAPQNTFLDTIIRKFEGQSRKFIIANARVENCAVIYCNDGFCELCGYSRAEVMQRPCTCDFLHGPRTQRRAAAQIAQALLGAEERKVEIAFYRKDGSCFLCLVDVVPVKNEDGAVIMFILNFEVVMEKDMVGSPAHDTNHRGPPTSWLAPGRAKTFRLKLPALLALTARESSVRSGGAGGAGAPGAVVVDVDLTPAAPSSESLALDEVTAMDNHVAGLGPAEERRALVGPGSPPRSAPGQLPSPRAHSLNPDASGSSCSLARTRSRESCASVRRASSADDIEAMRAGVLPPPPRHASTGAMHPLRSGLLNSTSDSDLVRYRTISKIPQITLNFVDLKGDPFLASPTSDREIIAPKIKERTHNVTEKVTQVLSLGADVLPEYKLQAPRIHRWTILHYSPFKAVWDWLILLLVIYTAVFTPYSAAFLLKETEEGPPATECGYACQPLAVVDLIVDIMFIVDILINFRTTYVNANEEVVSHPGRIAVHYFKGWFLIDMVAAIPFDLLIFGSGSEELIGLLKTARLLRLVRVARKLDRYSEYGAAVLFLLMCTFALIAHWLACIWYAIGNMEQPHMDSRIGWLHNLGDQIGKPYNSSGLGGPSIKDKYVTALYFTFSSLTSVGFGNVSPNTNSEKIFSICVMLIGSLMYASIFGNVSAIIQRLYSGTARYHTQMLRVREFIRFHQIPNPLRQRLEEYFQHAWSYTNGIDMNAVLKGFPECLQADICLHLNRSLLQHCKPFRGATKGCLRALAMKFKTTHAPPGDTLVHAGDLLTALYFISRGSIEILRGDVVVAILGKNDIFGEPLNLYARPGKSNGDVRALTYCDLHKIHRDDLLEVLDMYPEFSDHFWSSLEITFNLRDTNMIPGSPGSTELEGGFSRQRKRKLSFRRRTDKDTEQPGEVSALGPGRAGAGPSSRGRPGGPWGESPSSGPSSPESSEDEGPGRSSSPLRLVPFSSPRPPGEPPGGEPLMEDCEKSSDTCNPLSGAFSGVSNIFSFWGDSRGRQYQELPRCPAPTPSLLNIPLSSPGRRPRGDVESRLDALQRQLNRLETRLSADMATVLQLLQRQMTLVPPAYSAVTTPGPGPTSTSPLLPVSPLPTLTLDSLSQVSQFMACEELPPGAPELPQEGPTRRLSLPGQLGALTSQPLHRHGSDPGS

**Q.** With C=CC(=O)Nc1cc(Nc2nccc(-c3cn(C)c4ccccc34)n2)c(OC)cc1N(C)CCN(C)C [OSIMERTINIB] as the compound, how does the TGI (NCI-H1975 [1]) read?
**A.** Its TGI is 120%.

**Q.** What about the TGI (A-431 [2]) of the same compound?
**A.** The TGI was 65%.

**Q.** What about the logD [3] of the same compound?
**A.** Its logD is 3.4.

**Q.** And the solubility thermodynamic [4]?
**A.** The solubility thermodynamic was 7 µM (≈ 3.5 µg/mL).

**Q.** And the IC50 [5]?
**A.** Its IC50 is 2900 nM.

**Q.** What about the GI50 [7] of the same compound?
**A.** The GI50 was 23 nM.

**Q.** What about the GI50 [8] of the same compound?
**A.** The GI50 was 264 nM.

**Q.** And the Fu (Plasma [9])?
**A.** The Fu was 2.9%.

**Q.** And the fraction unbound [10]?
**A.** The fraction unbound was 0.034.

**Q.** What about the hepatocyte CLint [11] of the same compound?
**A.** The hepatocyte CLint was 27 µL/min/1e6 cells.

**Q.** What about the hepatocyte CLint [12] of the same compound?
**A.** Its hepatocyte CLint is 3.4 µL/min/1e6 cells.

**Q.** What about the half-life [13] of the same compound?
**A.** The half-life was 2.02 h.

**Q.** And the Cmax [14]?
**A.** Its Cmax is 380 nM.

**Q.** What about the TGI (NCI-H1975 [15]) of the same compound?
**A.** The TGI was 148%.

**Q.** And the TGI [16]?
**A.** Its TGI is 267%.

**Q.** And the TGI (A-431 [17])?
**A.** The TGI was 102%.

**Q.** What about the clearance (Rattus norvegicus [18]) of the same compound?
**A.** Its clearance is 45 mL/min/kg.

**Q.** What about the bioavailability [19] of the same compound?
**A.** Its bioavailability is 45%.

**Q.** And the fraction unbound [20]?
**A.** The fraction unbound was 0.032.

**Q.** And the TGI (NCI-H1975 [21])?
**A.** The TGI was 134%.

**Q.** What about the TGI (A-431 [22]) of the same compound?
**A.** Its TGI is 79%.

**Q.** And the IC50 (Insulin receptor)?
**A.** The IC50 was 912 nM.

**Q.** And the Activity (Rattus norvegicus [23])?
**A.** Its Activity is “Non-toxic”.

**Q.** And the Activity (Rattus norvegicus [24])?
**A.** Its Activity is “Non-toxic”.

**Q.** What about the Activity (Cavia porcellus) of the same compound?
**A.** The Activity was “Non-toxic”.

**Q.** And the Drug metabolism (Plasma [25])?
**A.** The Drug metabolism was “metabolite_detected”.

**Q.** And the Drug metabolism (Plasma [26])?
**A.** The Drug metabolism was “metabolite_detected”.

**Q.** And the Drug metabolism (Plasma [27])?
**A.** The Drug metabolism was “metabolite_detected”.

**Q.** What about the Drug metabolism (Plasma [28]) of the same compound?
**A.** The Drug metabolism was “metabolite_detected”.

**Q.** Which results are given for C=CC(=O)Nc1cc(Nc2nccc(-c3cn(C)c4ccccc34)n2)c(OC)cc1N(C)CCNC?
**A.** Drug metabolism (Plasma [29]): metabolite_detected; logD [3]: 2.3; solubility thermodynamic [4]: 14 µM (≈ 6.8 µg/mL); IC50 [30]: > 33000 nM; IC50 [5]: 1600 nM; GI50 (NCI-H1975 [6]; Homo sapiens, NCI-H1975, 72 h): 19 nM; GI50 ([7]; Homo sapiens, PC-9, 72 h): 15 nM; GI50 ([8]; Homo sapiens, Calu-3, 72 h): 537 nM; fraction unbound [31]: 0.039; fraction unbound [10]: 0.0105; hepatocyte CLint [11]: 50 µL/min/1e6 cells; hepatocyte CLint [12]: < 3 µL/min/1e6 cells; fraction unbound [20]: 0.023; Drug metabolism (Plasma [32]): metabolite_detected

**Q.** For CN(C)C/C=C/C(=O)Nc1cc2c(Nc3ccc(F)c(Cl)c3)ncnc2cc1O[C@H]1CCOC1 [AFATINIB], which inhibition in vivo at […] (NCI-H1975 [1]; NCI-H1975, 168 h, read-out: TGI) is on record?
**A.** Its inhibition in vivo at […] is 16%.

**Q.** And the inhibition in vivo at […] (A-431 [2]; A-431, 168 h, read-out: TGI)?
**A.** The inhibition in vivo at […] was 84%.

**Q.** What about the inhibition in vivo at 20 mg/kg/day (NCI-H1975 [33]) of the same compound?
**A.** The inhibition in vivo at 20 mg/kg/day was 74%.

**Q.** And the inhibition in vivo at 20 mg/kg/day (A-431 [34])?
**A.** Its inhibition in vivo at 20 mg/kg/day is 158%.

**Q.** What about the inhibition in vivo at 10 mg/kg/day (NCI-H1975 [15]; [35]) of the same compound?
**A.** The inhibition in vivo at 10 mg/kg/day was 25%.

**Q.** What about the inhibition in vivo at 10 mg/kg/day (A-431 [17]; [36]) of the same compound?
**A.** The inhibition in vivo at 10 mg/kg/day was 131%.

**Q.** And the inhibition in vivo at 5 mg/kg/day (NCI-H1975 [21]; [35])?
**A.** Its inhibition in vivo at 5 mg/kg/day is 23%.

**Q.** And the inhibition in vivo at 5 mg/kg/day (A-431 [22]; [36])?
**A.** The inhibition in vivo at 5 mg/kg/day was 84%.

Source: ChEMBL document CHEMBL3351341, “Discovery of a potent and selective EGFR inhibitor (AZD9291) of both sensitizing and T790M resistance mutations that spares the wild type form of the receptor” (J Med Chem, 2014)
